Measured values published in paper doi:10.1101/2023.10.20.563248v1 (biorxiv, 2023).

Experiments:
Conditions in all cases: 1 µM; inhibitor
PRKD2 = PRKD2 (Homo sapiens, UniProt Q9BZL6)
EPHA3 = EPHA3 (Homo sapiens, UniProt P29320)
PAK2 = PAK2 (Homo sapiens, UniProt Q13177)
STK17A = STK17A (Homo sapiens, UniProt Q9UEE5)
RPS6KA1 = RPS6KA1 (Homo sapiens, UniProt Q15418)
BMPR1A = BMPR1A (Homo sapiens, UniProt P36894)
RPS6KA3 = RPS6KA3 (Homo sapiens, UniProt P51812)
CDK1/CycB1 = CDK1/CycB1 (Homo sapiens, UniProt P06493)
ERBB2 = ERBB2 (Homo sapiens, UniProt P04626)
CAMK2A = CAMK2A (Homo sapiens, UniProt Q9UQM7)
ACK1 = ACK1 (Homo sapiens, UniProt Q07912)
NEK4 = NEK4 (Homo sapiens, UniProt P51957)
CDK16 = CDK16 (Homo sapiens, UniProt Q00536)
LIMK1 = LIMK1 (Homo sapiens, UniProt P53667)
MYLK2 = MYLK2 (Homo sapiens, UniProt Q9H1R3)
MKK7 = MKK7 (Homo sapiens, UniProt O14733)
TLK2 = TLK2 (Homo sapiens, UniProt Q86UE8)
TLK2, sequence (Q86UE8 whole entry): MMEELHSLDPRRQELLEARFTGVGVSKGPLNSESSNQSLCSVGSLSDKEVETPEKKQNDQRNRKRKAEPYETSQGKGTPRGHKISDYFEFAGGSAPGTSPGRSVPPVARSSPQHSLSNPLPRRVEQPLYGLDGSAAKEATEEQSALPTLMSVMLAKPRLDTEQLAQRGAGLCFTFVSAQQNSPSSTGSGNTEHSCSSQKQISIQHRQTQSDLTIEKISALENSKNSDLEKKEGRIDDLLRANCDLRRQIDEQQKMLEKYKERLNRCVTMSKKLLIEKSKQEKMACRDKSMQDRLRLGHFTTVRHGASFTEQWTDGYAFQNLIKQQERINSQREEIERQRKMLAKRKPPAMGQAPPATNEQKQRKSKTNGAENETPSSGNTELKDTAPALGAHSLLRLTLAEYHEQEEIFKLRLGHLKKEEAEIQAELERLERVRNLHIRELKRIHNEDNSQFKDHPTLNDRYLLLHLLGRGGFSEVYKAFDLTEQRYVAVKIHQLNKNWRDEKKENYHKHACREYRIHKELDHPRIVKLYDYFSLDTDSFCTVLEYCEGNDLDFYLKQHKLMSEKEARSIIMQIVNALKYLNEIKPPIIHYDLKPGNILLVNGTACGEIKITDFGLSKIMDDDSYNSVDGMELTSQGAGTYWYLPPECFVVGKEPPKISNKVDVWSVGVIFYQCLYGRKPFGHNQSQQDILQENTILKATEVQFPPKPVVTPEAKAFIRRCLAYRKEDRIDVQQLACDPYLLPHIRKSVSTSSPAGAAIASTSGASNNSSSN

CAMK1D = CAMK1D (Homo sapiens, UniProt Q8IU85)
CAMK1D, sequence (Q8IU85 whole entry): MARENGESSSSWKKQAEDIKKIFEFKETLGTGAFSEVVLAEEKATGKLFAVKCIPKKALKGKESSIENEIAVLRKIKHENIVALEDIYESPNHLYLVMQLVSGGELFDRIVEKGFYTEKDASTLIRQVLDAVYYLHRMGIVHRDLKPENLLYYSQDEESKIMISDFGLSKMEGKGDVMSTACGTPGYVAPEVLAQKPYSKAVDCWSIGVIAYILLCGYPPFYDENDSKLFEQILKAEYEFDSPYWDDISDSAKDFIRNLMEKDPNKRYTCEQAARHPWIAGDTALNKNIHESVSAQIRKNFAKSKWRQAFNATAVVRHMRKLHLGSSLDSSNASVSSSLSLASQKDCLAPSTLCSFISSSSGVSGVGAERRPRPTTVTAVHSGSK

RIPK2 = RIPK2 (Homo sapiens, UniProt O43353)
RIPK2, sequence (O43353 whole entry): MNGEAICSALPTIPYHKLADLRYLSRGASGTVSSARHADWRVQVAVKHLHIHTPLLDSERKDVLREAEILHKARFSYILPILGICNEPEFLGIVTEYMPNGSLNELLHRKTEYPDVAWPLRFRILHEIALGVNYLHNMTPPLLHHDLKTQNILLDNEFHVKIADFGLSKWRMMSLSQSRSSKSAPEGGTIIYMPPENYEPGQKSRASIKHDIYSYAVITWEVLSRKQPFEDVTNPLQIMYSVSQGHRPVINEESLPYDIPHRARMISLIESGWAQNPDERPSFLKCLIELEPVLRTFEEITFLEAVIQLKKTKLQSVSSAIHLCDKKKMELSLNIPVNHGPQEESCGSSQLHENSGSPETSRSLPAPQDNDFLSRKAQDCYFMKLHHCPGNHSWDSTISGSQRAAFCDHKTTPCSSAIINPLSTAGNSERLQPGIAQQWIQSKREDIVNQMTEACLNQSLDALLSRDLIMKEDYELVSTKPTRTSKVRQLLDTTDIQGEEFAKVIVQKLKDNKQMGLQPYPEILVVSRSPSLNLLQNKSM

TXK = TXK (Homo sapiens, UniProt P42681)
MEKK3 = MEKK3 (Homo sapiens, UniProt Q99759)
MEKK3, sequence (Q99759 whole entry): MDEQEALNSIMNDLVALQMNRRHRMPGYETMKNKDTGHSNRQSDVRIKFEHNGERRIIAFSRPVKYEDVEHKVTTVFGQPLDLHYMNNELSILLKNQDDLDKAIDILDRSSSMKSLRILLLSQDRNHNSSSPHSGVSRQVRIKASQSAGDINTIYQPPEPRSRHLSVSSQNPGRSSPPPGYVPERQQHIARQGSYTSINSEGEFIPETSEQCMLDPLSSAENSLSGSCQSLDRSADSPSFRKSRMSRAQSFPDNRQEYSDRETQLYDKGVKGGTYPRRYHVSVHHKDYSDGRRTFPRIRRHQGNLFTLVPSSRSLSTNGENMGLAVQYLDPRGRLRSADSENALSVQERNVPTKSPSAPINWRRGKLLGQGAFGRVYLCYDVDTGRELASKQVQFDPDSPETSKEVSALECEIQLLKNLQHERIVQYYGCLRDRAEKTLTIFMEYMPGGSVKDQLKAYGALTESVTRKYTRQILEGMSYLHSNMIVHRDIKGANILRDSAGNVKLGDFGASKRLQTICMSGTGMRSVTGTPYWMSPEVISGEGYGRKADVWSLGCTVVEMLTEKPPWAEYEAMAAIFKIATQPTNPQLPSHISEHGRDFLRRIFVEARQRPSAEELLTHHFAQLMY

MTOR = MTOR (Homo sapiens, UniProt P42345)
CLK2 = CLK2 (Homo sapiens, UniProt P49760)
p38b = p38b (Homo sapiens, UniProt Q15759)
MEK5 = MEK5 (Homo sapiens, UniProt Q13163)
MEKK2 = MEKK2 (Homo sapiens, UniProt Q9Y2U5)
MEKK2, sequence (Q9Y2U5 whole entry): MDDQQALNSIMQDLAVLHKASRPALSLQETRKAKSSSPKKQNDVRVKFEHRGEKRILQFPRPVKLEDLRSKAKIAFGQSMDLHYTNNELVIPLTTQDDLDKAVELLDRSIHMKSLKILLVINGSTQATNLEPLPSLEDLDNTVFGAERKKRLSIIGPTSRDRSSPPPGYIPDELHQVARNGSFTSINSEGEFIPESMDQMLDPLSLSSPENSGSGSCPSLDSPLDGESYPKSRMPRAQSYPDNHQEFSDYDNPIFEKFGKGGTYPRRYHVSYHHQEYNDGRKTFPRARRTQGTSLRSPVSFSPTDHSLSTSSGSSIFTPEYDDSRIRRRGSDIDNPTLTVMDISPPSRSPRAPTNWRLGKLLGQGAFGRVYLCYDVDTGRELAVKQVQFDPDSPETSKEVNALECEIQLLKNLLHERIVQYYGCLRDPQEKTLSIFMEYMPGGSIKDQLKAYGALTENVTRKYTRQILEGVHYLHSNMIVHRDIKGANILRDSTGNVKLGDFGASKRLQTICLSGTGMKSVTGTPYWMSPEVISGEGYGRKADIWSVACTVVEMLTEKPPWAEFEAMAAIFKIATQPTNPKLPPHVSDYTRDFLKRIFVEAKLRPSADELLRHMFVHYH

RPS6KA4 = RPS6KA4 (Homo sapiens, UniProt O75676)
RPS6KA4, sequence (O75676 whole entry): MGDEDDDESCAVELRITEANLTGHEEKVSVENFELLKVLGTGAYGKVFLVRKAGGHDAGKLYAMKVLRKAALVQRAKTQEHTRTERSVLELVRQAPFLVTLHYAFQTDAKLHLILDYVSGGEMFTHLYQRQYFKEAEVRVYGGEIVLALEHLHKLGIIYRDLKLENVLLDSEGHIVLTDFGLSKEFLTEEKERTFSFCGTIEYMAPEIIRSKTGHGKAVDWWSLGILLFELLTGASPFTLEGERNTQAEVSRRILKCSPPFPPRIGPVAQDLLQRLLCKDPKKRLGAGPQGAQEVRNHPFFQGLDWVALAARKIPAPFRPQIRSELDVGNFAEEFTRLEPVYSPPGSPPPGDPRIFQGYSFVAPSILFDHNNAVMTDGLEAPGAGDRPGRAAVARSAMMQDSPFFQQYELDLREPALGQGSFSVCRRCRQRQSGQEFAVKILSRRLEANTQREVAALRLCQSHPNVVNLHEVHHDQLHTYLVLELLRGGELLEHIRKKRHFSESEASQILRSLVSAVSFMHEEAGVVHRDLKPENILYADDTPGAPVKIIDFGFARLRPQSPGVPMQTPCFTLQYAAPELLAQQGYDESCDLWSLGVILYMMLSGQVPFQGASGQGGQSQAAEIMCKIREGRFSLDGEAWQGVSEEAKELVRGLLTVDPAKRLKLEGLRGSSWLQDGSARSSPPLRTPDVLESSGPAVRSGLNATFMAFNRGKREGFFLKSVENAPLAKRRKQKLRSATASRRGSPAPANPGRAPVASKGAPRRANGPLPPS

MYLK = MYLK (Homo sapiens, UniProt Q15746)
ROS = ROS (Homo sapiens, UniProt P08922)
ERBB4 = ERBB4 (Homo sapiens, UniProt Q15303)
PLK1 = PLK1 (Homo sapiens, UniProt P53350)
PLK1, sequence (P53350 whole entry): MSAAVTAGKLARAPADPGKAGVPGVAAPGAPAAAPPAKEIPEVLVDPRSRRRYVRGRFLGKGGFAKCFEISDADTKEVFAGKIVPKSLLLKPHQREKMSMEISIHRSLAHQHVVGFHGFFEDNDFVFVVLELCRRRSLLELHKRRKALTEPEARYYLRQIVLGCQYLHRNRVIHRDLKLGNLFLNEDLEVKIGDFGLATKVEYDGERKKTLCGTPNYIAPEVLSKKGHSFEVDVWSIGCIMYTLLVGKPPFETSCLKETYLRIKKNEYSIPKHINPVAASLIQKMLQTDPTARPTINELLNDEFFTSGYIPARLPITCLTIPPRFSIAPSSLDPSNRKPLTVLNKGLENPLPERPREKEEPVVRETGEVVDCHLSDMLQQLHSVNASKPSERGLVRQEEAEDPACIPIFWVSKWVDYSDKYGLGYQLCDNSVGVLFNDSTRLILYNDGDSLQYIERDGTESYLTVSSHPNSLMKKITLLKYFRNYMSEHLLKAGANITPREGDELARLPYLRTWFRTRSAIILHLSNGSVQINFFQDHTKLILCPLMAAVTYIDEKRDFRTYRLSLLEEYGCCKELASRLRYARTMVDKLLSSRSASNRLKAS

RPS6KA1, sequence (Q15418 whole entry): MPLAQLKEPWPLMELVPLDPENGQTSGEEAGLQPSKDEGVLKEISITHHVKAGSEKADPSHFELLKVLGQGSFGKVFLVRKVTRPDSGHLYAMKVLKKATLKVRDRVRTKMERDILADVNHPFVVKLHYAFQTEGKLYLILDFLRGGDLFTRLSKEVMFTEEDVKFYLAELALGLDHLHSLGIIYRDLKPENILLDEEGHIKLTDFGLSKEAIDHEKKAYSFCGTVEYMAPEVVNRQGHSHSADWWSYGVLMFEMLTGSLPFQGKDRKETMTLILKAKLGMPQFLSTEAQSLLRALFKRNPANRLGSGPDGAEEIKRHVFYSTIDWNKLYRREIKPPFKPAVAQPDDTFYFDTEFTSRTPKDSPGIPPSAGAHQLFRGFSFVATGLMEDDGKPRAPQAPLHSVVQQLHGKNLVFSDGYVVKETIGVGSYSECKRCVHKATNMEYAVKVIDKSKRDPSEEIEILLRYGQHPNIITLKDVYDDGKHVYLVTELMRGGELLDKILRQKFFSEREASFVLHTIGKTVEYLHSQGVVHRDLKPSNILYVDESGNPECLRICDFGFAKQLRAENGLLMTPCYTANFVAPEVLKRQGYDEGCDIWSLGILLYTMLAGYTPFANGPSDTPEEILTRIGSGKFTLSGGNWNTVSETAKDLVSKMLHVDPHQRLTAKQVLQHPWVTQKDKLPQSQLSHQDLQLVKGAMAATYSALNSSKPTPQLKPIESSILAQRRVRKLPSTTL

O=C1NCCCCCNc2nc(c3ccccc3n2)Nc2cc1[nH]n2 [21c, (Z)-3^1H-2,5,11-triaza-1(4,2)-quinazolina-3(3,5)-pyrazolacycloundecaphan-4-one]
21c Remaining activity, percent of control [%] (PRKD2): 82.0% | 21c Remaining activity, percent of control [%] (EPHA3): 97.7% | 21c Remaining activity, percent of control [%] (PAK2): 113.2% | 21c Remaining activity, percent of control [%] (STK17A): 103.5% | 21c Remaining activity, percent of control [%] (RPS6KA1): 90.5% | 21c Remaining activity, percent of control [%] (BMPR1A): 108.3% | 21c Remaining activity, percent of control [%] (RPS6KA3): 87.3% | 21c Remaining activity, percent of control [%] (CDK1/CycB1): 87.2% | 21c Remaining activity, percent of control [%] (ERBB2): 94.1% | 21c Remaining activity, percent of control [%] (CAMK2A): 110.6% | 21c Remaining activity, percent of control [%] (ACK1): 79.8% | 21c Remaining activity, percent of control [%] (NEK4): 103.8% | 21c Remaining activity, percent of control [%] (CDK16): 94.1% | 21c Remaining activity, percent of control [%] (LIMK1): 36.6% | 21c Remaining activity, percent of control [%] (MYLK2): 79.0% | 21c Remaining activity, percent of control [%] (MKK7): 100.3% | 21c Remaining activity, percent of control [%] (TLK2): 95.4% | 21c Remaining activity, percent of control [%] (CAMK1D): 103.0% | 21c Remaining activity, percent of control [%] (RIPK2): 105.0% | 21c Remaining activity, percent of control [%] (TXK): 98.2% | 21c Remaining activity, percent of control [%] (MEKK3): 105.8% | 21c Remaining activity, percent of control [%] (MTOR): 99.2% | 21c Remaining activity, percent of control [%] (CLK2): 64.6% | 21c Remaining activity, percent of control [%] (p38b): 92.9% | 21c Remaining activity, percent of control [%] (MEK5): 70.1% | 21c Remaining activity, percent of control [%] (MEKK2): 103.5% | 21c Remaining activity, percent of control [%] (RPS6KA4): 92.5% | 21c Remaining activity, percent of control [%] (MYLK): 68.9% | 21c Remaining activity, percent of control [%] (ROS): 109.6% | 21c Remaining activity, percent of control [%] (ERBB4): 90.7% | 21c Remaining activity, percent of control [%] (PLK1): 89.3%
